Test system: 922993-354-T-J3-PDC complex spheroid viability
Assay: Anticancer human tumor 922993-354-T-J3-PDC patient-derived endometrial carcinoma cell line growth inhibition [POLQ]
Conditions: for IC50: curve of first compound; for viability, T/C: stronger effect = lower value
Method in brief: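 Growth inhibition in 3D: complex spheroids (tumor PDC, HUVEC, MSC) treated with POLQ inhibitor combinations; where Cmax unknown, highest tested concentration 10 microM, except SN-38 at 1 microM.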

[1] = second compound 0.0316 µM, first compound 0.00316 µM
[2] = second compound 0.0316 µM, first compound 0.01 µM
[3] = second compound 0.0316 µM, first compound 0.0316 µM
[4] = second compound 0.0316 µM, first compound 0.1 µM
[5] = second compound 0.1 µM, first compound 0.00316 µM
[6] = second compound 0.1 µM, first compound 0.01 µM
[7] = second compound 0.1 µM, first compound 0.0316 µM
[8] = second compound 0.1 µM, first compound 0.1 µM
[9] = second compound 0.316 µM, first compound 0.00316 µM
[10] = second compound 0.316 µM, first compound 0.01 µM
[11] = second compound 0.316 µM, first compound 0.0316 µM
[12] = second compound 0.316 µM, first compound 0.1 µM
[13] = second compound 1 µM, first compound 0.00316 µM
[14] = second compound 1 µM, first compound 0.01 µM
[15] = second compound 1 µM, first compound 0.0316 µM
[16] = second compound 1 µM, first compound 0.1 µM
[17] = second compound 3.16 µM, first compound 0.00316 µM
[18] = second compound 3.16 µM, first compound 0.01 µM
[19] = second compound 3.16 µM, first compound 0.0316 µM
[20] = second compound 3.16 µM, first compound 0.1 µM
[21] = second compound 10 µM, first compound 0.00316 µM
[22] = second compound 10 µM, first compound 0.01 µM
[23] = second compound 10 µM, first compound 0.0316 µM
[24] = second compound 10 µM, first compound 0.1 µM
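Also: spheroids exposed to the agents for one week.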
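For viability, T/C in this document: 100% = DMSO vehicle control wells.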

## CC[C@@]1(O)C(=O)OCc2c1cc1n(c2=O)Cc2cc3c(CN(C)C)c(O)ccc3nc2-1 + Nc1ccc(C#CCN(C(=O)Cc2ncc(C(F)(F)F)cc2C(F)(F)F)c2ccc(F)cc2)nn1
Second compound 0.0316 µM
  IC50: > 100 nM
Second compound 0.1 µM
  IC50: > 100 nM
Second compound 0.316 µM
  IC50: > 100 nM
Second compound 1 µM
  IC50: > 100 nM
Second compound 3.16 µM
  IC50: > 100 nM
Second compound 10 µM
  IC50: 54.7 nM
Second compound 0.0316 µM, first compound 0.000316 µM
  viability, T/C: 103%
Second compound 0.0316 µM, first compound 0.001 µM
  viability, T/C: 105%
[1]
  viability, T/C: 99.4%
[2]
  viability, T/C: 101%
[3]
  viability, T/C: 100%
[4]
  viability, T/C: 89.5%
Second compound 0.1 µM, first compound 0.000316 µM
  viability, T/C: 102%
Second compound 0.1 µM, first compound 0.001 µM
  viability, T/C: 105%
[5]
  viability, T/C: 100%
[6]
  viability, T/C: 102%
[7]
  viability, T/C: 102%
[8]
  viability, T/C: 87.2%
Second compound 0.316 µM, first compound 0.000316 µM
  viability, T/C: 105%
Second compound 0.316 µM, first compound 0.001 µM
  viability, T/C: 98.1%
[9]
  viability, T/C: 103%
[10]
  viability, T/C: 98.9%
[11]
  viability, T/C: 103%
[12]
  viability, T/C: 81.1%
Second compound 1 µM, first compound 0.000316 µM
  viability, T/C: 105%
Second compound 1 µM, first compound 0.001 µM
  viability, T/C: 103%
[13]
  viability, T/C: 100%
[14]
  viability, T/C: 99.2%
[15]
  viability, T/C: 96%
[16]
  viability, T/C: 82.2%
Second compound 3.16 µM, first compound 0.000316 µM
  viability, T/C: 101%
Second compound 3.16 µM, first compound 0.001 µM
  viability, T/C: 102%
[17]
  viability, T/C: 103%
[18]
  viability, T/C: 94.5%
[19]
  viability, T/C: 92.9%
[20]
  viability, T/C: 72.9%
Second compound 10 µM, first compound 0.000316 µM
  viability, T/C: 100%
Second compound 10 µM, first compound 0.001 µM
  viability, T/C: 91.3%
[21]
  viability, T/C: 97%
[22]
  viability, T/C: 92.9%
[23]
  viability, T/C: 71.8%
[24]
  viability, T/C: 25.9%

## C=CCn1c(=O)c2cnc(Nc3ccc(N4CCN(C)CC4)cc3)nc2n1-c1cccc(C(C)(C)O)n1 + Cc1cccc(N(C)C(=O)C2C(O)CCN2c2nc(C)cc(C(F)(F)F)c2C#N)c1
Second compound 0.0316 µM
  IC50: > 1000 nM
Second compound 0.1 µM
  IC50: > 1000 nM
Second compound 0.316 µM
  IC50: > 1000 nM
Second compound 1 µM
  IC50: > 1000 nM
Second compound 3.16 µM
  IC50: > 1000 nM
Second compound 10 µM
  IC50: > 1000 nM
[1]
  viability, T/C: 101%
[2]
  viability, T/C: 105%
[3]
  viability, T/C: 102%
[4]
  viability, T/C: 101%
Second compound 0.0316 µM, first compound 0.316 µM
  viability, T/C: 105%
Second compound 0.0316 µM, first compound 1 µM
  viability, T/C: 102%
[5]
  viability, T/C: 105%
[6]
  viability, T/C: 104%
[7]
  viability, T/C: 99.5%
[8]
  viability, T/C: 103%
Second compound 0.1 µM, first compound 0.316 µM
  viability, T/C: 105%
Second compound 0.1 µM, first compound 1 µM
  viability, T/C: 101%
[9]
  viability, T/C: 103%
[10]
  viability, T/C: 106%
[11]
  viability, T/C: 98.1%
[12]
  viability, T/C: 104%
Second compound 0.316 µM, first compound 0.316 µM
  viability, T/C: 104%
Second compound 0.316 µM, first compound 1 µM
  viability, T/C: 103%
[13]
  viability, T/C: 105%
[14]
  viability, T/C: 101%
[15]
  viability, T/C: 106%
[16]
  viability, T/C: 99.1%
Second compound 1 µM, first compound 0.316 µM
  viability, T/C: 104%
Second compound 1 µM, first compound 1 µM
  viability, T/C: 104%
[17]
  viability, T/C: 99.9%
[18]
  viability, T/C: 101%
[19]
  viability, T/C: 100%
[20]
  viability, T/C: 101%
Second compound 3.16 µM, first compound 0.316 µM
  viability, T/C: 104%
Second compound 3.16 µM, first compound 1 µM
  viability, T/C: 99%
[21]
  viability, T/C: 103%
[22]
  viability, T/C: 97.1%
[23]
  viability, T/C: 98.5%
[24]
  viability, T/C: 97.3%
Second compound 10 µM, first compound 0.316 µM
  viability, T/C: 103%
Second compound 10 µM, first compound 1 µM
  viability, T/C: 94.2%
